The results in this text go back to PubChem BioAssay AID1259407 (Chemical Carcinogenesis Research Information System (CCRIS), 2018).

SMILES strings stand for the structures. Calls of active or inactive are those of the source. The rule behind the calls is not given here.

The test system of this data set is CCRIS mutagenicity, Ames/micronucleus/aberration tests. Put plainly: CCRIS mutagenicity studies. The settings on record: Test System: AMES SALMONELLA TYPHIMURIUM
Where [1] appears, read: Strain/Indicator: TA98, Metabolic Activation: NONE, Method: STANDARD PLATE.
The mark [2] stands for this setting: Strain/Indicator: TA100, Metabolic Activation: NONE, Method: STANDARD PLATE.

Consider `O=C([O-])c1cccnc1Nc1cccc(C(F)(F)F)c1.O=C([O-])c1cccnc1Nc1cccc(C(F)(F)F)c1.[Cu+2]`, for which the mutagenic call is “inactive; negative” (Strain/Indicator: TA97, Metabolic Activation: MOUSE, LIVER, S-9, Method: STANDARD PLATE); “inactive; negative” (Strain/Indicator: TA97, Metabolic Activation: NONE, Method: STANDARD PLATE); “inactive; negative” (Strain/Indicator: TA97, Metabolic Activation: RAT LIVER S-9, DELOR 103, Method: STANDARD PLATE); “inactive; negative” (Strain/Indicator: TA98, Metabolic Activation: MOUSE, LIVER, S-9, Method: STANDARD PLATE); “inactive; negative” under setting [1]; “inactive; negative” (Strain/Indicator: TA98, Metabolic Activation: RAT LIVER S-9, DELOR 103, Method: STANDARD PLATE). For the same compound, the mutagenic call runs as follows: (Strain/Indicator: TA100, Metabolic Activation: MOUSE, LIVER, S-9, Method: STANDARD PLATE) “inactive; negative”; under setting [2], “inactive; negative”; (Strain/Indicator: TA100, Metabolic Activation: RAT LIVER S-9, DELOR 103, Method: STANDARD PLATE) “inactive; negative”; (Strain/Indicator: TA102, Metabolic Activation: MOUSE, LIVER, S-9, Method: STANDARD PLATE) “inactive; negative”; (Strain/Indicator: TA102, Metabolic Activation: NONE, Method: STANDARD PLATE) “inactive; negative”; (Strain/Indicator: TA102, Metabolic Activation: RAT LIVER S-9, DELOR 103, Method: STANDARD PLATE) “inactive; negative”.

As to `Cn1cc2ccc([N+](=O)[O-])cc2n1`, the mutagenic call under setting [1] is “active; positive”.

With `CC(C)(Cl)OC(C)(C)Cl`, the mutagenic call (Strain/Indicator: TA100, Metabolic Activation: RAT, LIVER, S-9, AROCLOR 1254, Method: DESICCATOR) is “active; positive”.

Turning to `Cc1ccc(CO)cc1`, the mutagenic call runs as follows: (Strain/Indicator: TA97, Metabolic Activation: HAMSTER, LIVER, S-9, AROCLOR 1254 (10%), Method: PREINCUBATION) “inactive; negative”; (Strain/Indicator: TA97, Metabolic Activation: HAMSTER, LIVER, S-9, AROCLOR 1254 (30%), Method: PREINCUBATION) “inactive; negative”; (Strain/Indicator: TA97, Metabolic Activation: NONE, Method: PREINCUBATION) “inactive; negative”; (Strain/Indicator: TA97, Metabolic Activation: RAT, LIVER, S-9, AROCLOR 1254 (10%), Method: PREINCUBATION) “inactive; negative”; (Strain/Indicator: TA97, Metabolic Activation: RAT, LIVER, S-9, AROCLOR 1254 (30%), Method: PREINCUBATION) “inactive; negative”; (Strain/Indicator: TA98, Metabolic Activation: HAMSTER, LIVER, S-9, AROCLOR 1254 (10%), Method: PREINCUBATION) “inactive; negative”. Also, the mutagenic call is “inactive; negative” (Strain/Indicator: TA98, Metabolic Activation: HAMSTER, LIVER, S-9, AROCLOR 1254 (30%), Method: PREINCUBATION); “inactive; negative” (Strain/Indicator: TA98, Metabolic Activation: NONE, Method: PREINCUBATION); “inactive; negative” (Strain/Indicator: TA98, Metabolic Activation: RAT, LIVER, S-9, AROCLOR 1254 (10%), Method: PREINCUBATION); “inactive; negative” (Strain/Indicator: TA98, Metabolic Activation: RAT, LIVER, S-9, AROCLOR 1254 (30%), Method: PREINCUBATION); “inactive; negative” (Strain/Indicator: TA100, Metabolic Activation: HAMSTER, LIVER, S-9, AROCLOR 1254 (10%), Method: PREINCUBATION); “inactive; negative” (Strain/Indicator: TA100, Metabolic Activation: HAMSTER, LIVER, S-9, AROCLOR 1254 (30%), Method: PREINCUBATION). Also, the mutagenic call runs as follows: (Strain/Indicator: TA100, Metabolic Activation: NONE, Method: PREINCUBATION) “inactive; negative”; under setting [2], “inactive; negative”; (Strain/Indicator: TA100, Metabolic Activation: RAT, LIVER, S-9, AROCLOR 1254 (10%), Method: PREINCUBATION) “inactive; negative”; (Strain/Indicator: TA100, Metabolic Activation: RAT, LIVER, S-9, AROCLOR 1254 (30%), Method: PREINCUBATION) “inactive; negative”; (Strain/Indicator: TA1535, Metabolic Activation: HAMSTER, LIVER, S-9, AROCLOR 1254 (10%), Method: PREINCUBATION) “inactive; negative”; (Strain/Indicator: TA1535, Metabolic Activation: HAMSTER, LIVER, S-9, AROCLOR 1254 (30%), Method: PREINCUBATION) “inactive; negative”. Further, the mutagenic call reads like this: (Strain/Indicator: TA1535, Metabolic Activation: NONE, Method: PREINCUBATION) “inactive; negative”; (Strain/Indicator: TA1535, Metabolic Activation: RAT, LIVER, S-9, AROCLOR 1254 (10%), Method: PREINCUBATION) “inactive; negative”; (Strain/Indicator: TA1535, Metabolic Activation: RAT, LIVER, S-9, AROCLOR 1254 (30%), Method: PREINCUBATION) “inactive; negative”; (Strain/Indicator: TA1537, Metabolic Activation: HAMSTER, LIVER, S-9, AROCLOR 1254 (30%), Method: PREINCUBATION) “inactive; negative”; (Strain/Indicator: TA1537, Metabolic Activation: NONE, Method: PREINCUBATION) “inactive; negative”; (Strain/Indicator: TA1537, Metabolic Activation: RAT, LIVER, S-9, AROCLOR 1254 (30%), Method: PREINCUBATION) “inactive; negative”.

Regarding `O=[N+]([O-])c1c2c(c3ccc4cccc5ccc1c3c45)CCCC2`, the mutagenic call was “inactive; negative” under setting [1] and “inactive; negative” under setting [2].
